The values below come from US6894052B1, “Diarylalkylpiperazines active on the lower urinary tract” (Recordati S.A. Chemical and Pharmaceutical Company, priority 1997, dated 2005).

Each structure is given as a SMILES string. Read-outs that look alike come from different tables or passages of the source.

Experiment [1] addresses T1, human 5-HT1A serotonergic receptor (Homo sapiens, UniProt P08908).
T1 construct: expressed in transfected cells; host or cells: HeLa (human), stably transfected; cell membranes
T1 sequence (P08908 1-422): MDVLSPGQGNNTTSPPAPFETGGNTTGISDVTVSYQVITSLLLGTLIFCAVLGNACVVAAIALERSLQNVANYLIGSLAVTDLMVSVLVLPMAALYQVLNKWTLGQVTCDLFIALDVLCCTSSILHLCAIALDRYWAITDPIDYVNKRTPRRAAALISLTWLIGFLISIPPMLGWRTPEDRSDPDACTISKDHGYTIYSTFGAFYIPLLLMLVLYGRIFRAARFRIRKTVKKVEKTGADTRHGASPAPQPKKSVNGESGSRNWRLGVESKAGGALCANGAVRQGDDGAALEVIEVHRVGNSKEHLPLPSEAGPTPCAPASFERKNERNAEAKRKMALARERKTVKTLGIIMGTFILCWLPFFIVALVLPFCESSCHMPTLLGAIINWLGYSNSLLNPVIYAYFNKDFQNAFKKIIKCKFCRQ
Put plainly: Radioreceptor binding to recombinant human 5-HT1A receptors ([3H]8-OH-DPAT, HeLa cell membranes). How it is done: Genomic clone G-21 coding for the human 5-HT1A serotonergic receptor is stably transfected in a human cell line (HeLa). HeLa cells were grown as monolayers in Dulbecco's modified Eagle's medium (DMEM), supplemented with 10% fetal calf serum and gentamicin ([…]), 5% CO2 at 37° C. Cells were detached from the growth flask at 95% confluence by a cell scraper and were lysed in ice-cold 5 mM Tris and 5 mM EDTA buffer (pH 7.4). Homogenates were centrifuged at 40000×g×20 min and pellets were resuspended in a small volume of ice-cold 5 mM Tris and 5 mM EDTA buffer (pH 7.4) and immediately frozen and stored at −70° C. until use. On the day of experiment, cell membranes were resuspended in binding buffer: 50 mM Tris HCl (pH 7.4), 2.5 mM MgCl2, 10 μM pargyline (Fargin et al., Nature 335, 358-360, 1988). Membranes were incubated in a final volume of 1 ml for 30 min at 30° C. with 0.2-1 nM [^3H]8-OH-DPAT, in absence or presence of competing drugs; non-specific binding was determined in the presence of 10 μM 5-HT. The incubation was stopped by addition of ice-cold Tris-HCl buffer and rapid filtration through 0.2% polyethyleneimine-pretreated Whatman GF/B or Schleieher & Schuell GF52 filters.
(§1) The inhibition of specific binding of the radioligands by the tested drugs was analyzed to estimate the IC50 value by using the non-linear curve-fitting program Allfit (De Lean et al., Am. J. Physiol. 235, E97-E102, 1978). The IC50 value is converted to an affinity constant (Ki) by the equation of Cheng & Prusoff (Cheng, Y. C.; Prusoff, W. H. Biochem. Pharmacol. 22, 3099-3108, 1973).

Experiment [2] has as its target T2, 5-HT2A serotonergic receptors (Rattus norvegicus, UniProt P14842).
T2 construct: from tissue; host or cells: cerebral cortex of male Sprague Dawley rats, membranes
Put plainly: Radioreceptor binding to native 5-HT2A serotonergic receptors ([3H]ketanserin, rat cerebral cortex membranes). The note with it: rat cerebral cortex membranes, [3H]ketanserin; read-out: Ki 5-HT2A. The protocol: Binding studies on native 5-HT2A serotonergic receptors (Craig A. and Kenneth J., Life Sci. 38, 117-127, 1986) were carried out in membranes of rat cerebral cortex. Male Sprague Dawley rats (200-300 g, S D Harlan/Nossan, Italy) were killed by cervical dislocation and cerebral cortexes were excised and immediately frozen in liquid nitrogen and stored at −70° C. until use. Tissues were homogenized (2×20 sec) in 50 volumes of cold 50 mM Tris-HCl buffer pH 7.4, using a Polytron homogenizer (speed 7). Homogenates were centrifuged at 49000×g for 10 min, resuspended in 50 volumes of the same buffer, incubated at 37° C. for 15 min and centrifuged and resuspended twice more. The final pellets were suspended in 100 volumes of 50 mM Tris-HCl buffer pH 7.7. Membranes were incubated in a final volume of 1 ml for 20 min at 37° C. with 0.7-1.3 nM [^3H]ketanserin (5-HT2A receptors), in absence or presence of competing drugs. Non-specific binding was determined in the presence of 2 μM ketanserin. The incubation was stopped by addition of ice-cold 50 mM Tris-HCl buffer and rapid filtration through 0.2% polyethyleneimine pretreated Whatman GF/B or Schleicher & Schuell GF52 filters. The filters are then washed with ice-cold buffer and the radioactivity retained on the filters was counted by liquid scintillation spectrometry.
as §1

Experiment [3] deals with rhythmic bladder voiding contractions. Put plainly: Volume-induced rhythmic bladder voiding contractions in anaesthetized rats. The note with it: intravenous administration, anaesthetized rats; for ED50: Rattus norvegicus, extrapolated dose inducing a reduction of the number of contractions >30% in 50% of treated rats, read-out: ED50 (frequency); for ED10min: extrapolated dose inducing 10 min of disappearance of the contractions. Format: in vivo, rat. The protocol:
Female Sprague Dawley rats weighing 225-275 g (Crl: CDo BR, Charles River Italia) were used. The animals were housed with free access to food and water and were maintained on a forced 12 h alternating light-dark cycle at 22-24° C. for at least one week, except during the experiment. The activity on the rhythmic bladder voiding contractions was evaluated according to the method of Dray (J. Pharmacol. Methods, 13:157, 1985), with some modifications as in Guarneri (Pharmacol. Res., 27:173, 1993). Briefly, rats were anesthetized by subcutaneous injection of 1.25 g/kg (5 ml/kg) urethane, after which the urinary bladder was catheterized via the urethra using PE 50 polyethylene tubing filled with physiological saline. The catheter was tied in place with a ligature around the external urethral orifice and was connected with conventional pressure transducers (Statham P23 ID/P23 XL). […] The bladder was then filled via the recording catheter by incremental volumes of warm (37° C.) saline until reflex bladder voiding contractions occurred (usually 0.8-1.5 ml). For intravenous (i.v.) injection of bioactive compounds, PE 50 polyethylene tubing filled with physiological saline was inserted into the jugular vein.
From the cystometrogram, the number of contractions recorded 15 min before (basal values) and after treatment, as well as the mean amplitude of these contractions (mean height of the peaks in mm Hg) was evaluated.
Since most compounds produced an effect that was relatively rapid in onset and led to a complete cessation of bladder contractions, bioactivity was conveniently estimated by measuring the duration of bladder quiescence (i.e., the duration of time during which no contractions occurred). Moreover, the number of animals tested showing a reduction in the number of contractions >30% of that observed in the basal period, was recorded. […] Also computed in this manner were extrapolated doses which induced a reduction of the number of contractions of greater than 30% in 50% of treated rats (ED50, frequency) by the method of Bliss (Bliss C. I., Quart. J. Pharm. Pharmacol. 11, 192-216, 1938). After the suppressive effects of drug injection wore off, the height of the contractile peaks was compared with the height of the peaks previously recorded after the control intravenous administration of vehicle. The potency of the tested compounds (ED50 value, the extrapolated doses inducing a 30% reduction of amplitude of the contractions in 50% of treated rats) was evaluated on a quantal basis by the method of Bliss (Bliss C. I., Quart. J. Pharm. Pharmacol. 11, 192-216, 1938).

The target of the next experiment is α1 adrenergic receptors. Put plainly: Radioreceptor binding to native α1 adrenergic receptors ([3H]prazosin, rat cerebral cortex membranes). The protocol:
Binding studies on native α1 adrenergic receptors were carried out in membranes of rat cerebral cortex. Male Sprague Dawley rats (200-300 g, Charles River, Italy) were killed by cervical dislocation and cerebral cortexes were dissected and immediately frozen and stored at −70° C. until use. Tissue was homogenized (2×20 sec) in 50 volumes of cold 50 mM Tris-HCl buffer pH 7.4, using a Polytron homogenizer (speed 7). Homogenates were centrifuged at 48000×g for 10 min, resuspended in 50 volumes of the same buffer, incubated at 37° C. for 15 min and centrifuged and resuspended twice more. The final pellets were suspended in 100 volumes of 50 mM Tris-HCl buffer pH 7.4, containing 10 μM pargyline and 0.1% ascorbic acid. Membranes were incubated in a final volume of 1 ml for 30 min at 25° C. with 0.1-0.5 nM [^3H]prazosin, in the absence or presence of competing drugs; non-specific binding was determined in the presence of 10 μM phentolamine.
The incubation was stopped by addition of ice-cold 50 mM Tris-HCl buffer and rapid filtration through 0.2% polyethyleneimine-pretreated Whatman GF/B or Schleicher & Schuell GF52 filters. The filters were then washed with ice-cold buffer and the radioactivity retained on the filters counted by liquid scintillation spectrometry.
as §1

[4] abbreviates: recombinant human receptor in HeLa membranes, [3H]8-OH-DPAT, read-out: Ki 5-HT1A.

T2 sequence (P14842 whole entry): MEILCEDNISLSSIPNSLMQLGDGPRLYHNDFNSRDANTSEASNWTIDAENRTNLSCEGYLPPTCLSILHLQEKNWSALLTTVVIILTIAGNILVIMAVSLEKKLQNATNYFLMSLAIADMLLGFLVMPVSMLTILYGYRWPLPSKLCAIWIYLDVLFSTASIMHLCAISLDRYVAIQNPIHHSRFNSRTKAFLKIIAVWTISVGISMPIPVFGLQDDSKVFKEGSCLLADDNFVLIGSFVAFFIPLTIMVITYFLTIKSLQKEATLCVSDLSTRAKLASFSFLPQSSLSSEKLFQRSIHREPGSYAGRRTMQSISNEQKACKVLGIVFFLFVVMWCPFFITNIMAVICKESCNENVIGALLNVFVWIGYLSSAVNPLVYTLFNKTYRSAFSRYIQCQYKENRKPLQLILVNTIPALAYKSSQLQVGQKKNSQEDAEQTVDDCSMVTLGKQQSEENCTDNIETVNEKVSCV

Turning to `COc1ccccc1N1CCN(CCC(c2ccccc2)c2ccccn2)CC1` (stereo not drawn) [Ex. 9, 1-[3-phenyl-3-(2-pyridyl)propyl]-4-(2-methoxyphenyl)piperazine], the Ki in experiment [1] (setting [4]) was 0.62 nM; in experiment [2] it was 1020 nM; on α1 adrenergic receptors it was 268 nM. Besides, in experiment [3], the ED50 is 0.025 mg/kg. Besides, the ED10min in experiment [3] was 77 µg/kg.

For the molecule `COc1ccccc1N1CCN(CCC(C(N)=O)(c2ccccc2)c2ccccn2)CC1` (stereo not drawn) [Ex. 10, 1-[3-aminocarbonyl-3-phenyl-3-(2-pyridyl)propyl]-4-(2-methoxyphenyl)piperazine], the Ki in experiment [1] worked out at 19.3 nM; in experiment [2] it was 683 nM; on α1 adrenergic receptors, 1320 nM. For the same molecule, in experiment [3], the 50% effective dose (ED50) is 0.18 mg/kg. Moreover, the ED10min in experiment [3] was 228 µg/kg.

Consider `COc1ccccc1N1CCN(CCC(O)(c2ccccn2)c2ccccn2)CC1` [Ex. 14, 1-[3-hydroxy-3,3-bis-(2-pyridyl)propyl]-4-(2-methoxyphenyl)piperazine], for which the inhibition constant Ki in experiment [1] (setting [4]) was 0.34 nM; in experiment [2], more than 1000 nM; on α1 adrenergic receptors it was 114 nM. In experiment [3], the ED50 was 0.036 mg/kg. The ED10min in experiment [3] was 127 µg/kg.

A word on the Ki: it is a measure of affinity in units of concentration, obtained from inhibition or displacement. The ED50 is the dose that gives a 50% effect, or the effect in half of the subjects.
